The test system of the assay is Plasmodium falciparum. Kind of assay: Antiplasmodial activity against chloroquine-sensitive Plasmodium falciparum 3D7. Type of assay: functional, organism-based.

This is an account of results in ChEMBL document CHEMBL1150639, “Antiplasmodial compounds from Cochlospermum tinctorium” (J Nat Prod, 2002).

In general, IC50 refers to the concentration that gives 50% inhibition.

`CCCCCCCCCCCC(=O)CCO`: the IC50 is 68 µM.

The molecule `C=C(C)[C@@H]1CC[C@]2(C(=O)O)CC[C@]3(C)[C@H](CC[C@@H]4[C@@]5(C)C[C@@H](O)[C@H](O)C(C)(C)[C@@H]5CC[C@]43C)[C@@H]12` [ALPHITOLIC ACID] displayed an IC50 of 35 µM.
